Tests used:
[1] = xn = mol fraction of the nth substance listed; settings: 101 kPa, Liquid; for speed of sound: Pulse-echo method
[2] = refractive index (Na D-line) (dimensionless); xn = mol fraction of the nth substance listed; settings: 101 kPa, Liquid, Standard Abbe refractometry

Cc1cccc(C)c1 [1,3-dimethylbenzene] + CC1CCCCC1
Settings	mass density, [1] [kg/m3]	refractive index, [2]	speed of sound, [1] [m/s]
298.15 K, x2 = 0	859.8	1.49466	1321
298.15 K, x2 = 0.0514	854.4	1.49046	1313
298.15 K, x2 = 0.0975	849.6	1.4867	1307
298.15 K, x2 = 0.159	843.2	1.48174	1298
298.15 K, x2 = 0.2977	829.1	1.47072	1281
298.15 K, x2 = 0.399	819.1	1.46292	1269
298.15 K, x2 = 0.4954	809.7	1.45565	1258
298.15 K, x2 = 0.5965	800.2	1.44827	1248
298.15 K, x2 = 0.6974	791	1.44107	1238
298.15 K, x2 = 0.7948	782.3	1.4343	1230
298.15 K, x2 = 0.8933	773.8	1.42759	1222
298.15 K, x2 = 0.9495	769.1	1.42388	1218
313.15 K, x2 = 0	846.9	1.48653	1259
313.15 K, x2 = 0.0457	842.1	1.4829	1252
313.15 K, x2 = 0.0933	837.1	1.47908	1246
313.15 K, x2 = 0.1938	826.7	1.47103	1232
313.15 K, x2 = 0.2886	817	1.46361	1219
313.15 K, x2 = 0.3966	806.3	1.45534	1206
313.15 K, x2 = 0.5077	795.5	1.44702	1194
313.15 K, x2 = 0.595	787.3	1.44063	1184
313.15 K, x2 = 0.6933	778.3	1.43362	1175
313.15 K, x2 = 0.7987	768.8	1.42615	1165
313.15 K, x2 = 0.8973	760.3	1.41945	1157
313.15 K, x2 = 0.9504	756.1	1.41609	1153

Cc1ccc(C)cc1 [1,4-dimethylbenzene] + CC1CCCCC1
x2 = 0
Settings	mass density, [1] [kg/m3]	refractive index, [2]	speed of sound, [1] [m/s]
298.15 K	856.6	1.49312	1310
313.15 K	843.5	1.48444	1248

Cc1ccc(C)cc1 [1,4-dimethylbenzene] + C1CCCCCCC1
x2 = 0
Settings	mass density, [1] [kg/m3]	refractive index, [2]	speed of sound, [1] [m/s]
298.15 K	856.6	1.49312	1310
313.15 K	843.5	1.48444	1248

C1CCCCC1 [cyclohexane] + Cc1cccc(C)c1
x1 = 1
Settings	mass density, [1] [kg/m3]	refractive index, [2]	speed of sound, [1] [m/s]
298.15 K	773.9	1.4236	1255
313.15 K	759.59	1.41516	1182

Cc1cc(C)cc(C)c1 [1,3,5-trimethylbenzene] + CC1CCCCC1
Settings	mass density, [1] [kg/m3]	refractive index, [2]	speed of sound, [1] [m/s]
298.15 K, x2 = 0	861.1	1.49693	1336
298.15 K, x2 = 0.0463	856.7	1.49346	1330
298.15 K, x2 = 0.0962	851.9	1.48973	1323
298.15 K, x2 = 0.197	842.2	1.48211	1310
298.15 K, x2 = 0.2868	833.5	1.47524	1298
298.15 K, x2 = 0.3963	822.8	1.46685	1283
298.15 K, x2 = 0.4972	813	1.45909	1271
298.15 K, x2 = 0.5956	803.4	1.45153	1259
298.15 K, x2 = 0.6974	793.6	1.44373	1247
298.15 K, x2 = 0.7932	784.3	1.43635	1236
298.15 K, x2 = 0.8942	774.8	1.42859	1226
298.15 K, x2 = 0.9497	769.6	1.42444	1220
313.15 K, x2 = 0	848.8	1.48923	1277
313.15 K, x2 = 0.0524	843.8	1.48547	1269
313.15 K, x2 = 0.1075	838.5	1.48144	1262
313.15 K, x2 = 0.2051	829.1	1.47418	1248
313.15 K, x2 = 0.314	818.5	1.466	1233
313.15 K, x2 = 0.4067	809.5	1.45892	1221
313.15 K, x2 = 0.5093	799.5	1.45103	1207
313.15 K, x2 = 0.6083	789.8	1.44335	1195
313.15 K, x2 = 0.7071	780.1	1.43558	1183
313.15 K, x2 = 0.8106	770.1	1.42752	1171
313.15 K, x2 = 0.9093	760.4	1.41983	1159
313.15 K, x2 = 0.9596	755.7	1.41588	1154

Cc1ccc(C)cc1 [1,4-dimethylbenzene] + C1CCCCC1
Settings	mass density, [1] [kg/m3]	refractive index, [2]	speed of sound, [1] [m/s]
298.15 K, x2 = 0	856.6	1.49312	1310
298.15 K, x2 = 0.0459	852.9	1.49003	1306
298.15 K, x2 = 0.0952	848.6	1.4866	1301
298.15 K, x2 = 0.1948	840.1	1.47959	1292
298.15 K, x2 = 0.2874	832.3	1.47324	1284
298.15 K, x2 = 0.3929	823	1.4656	1275
298.15 K, x2 = 0.4964	814.1	1.45843	1269
298.15 K, x2 = 0.5938	805.7	1.45142	1263
298.15 K, x2 = 0.6949	797.2	1.44417	1258
298.15 K, x2 = 0.7906	789.5	1.43762	1254
298.15 K, x2 = 0.8927	781.5	1.43057	1253
298.15 K, x2 = 0.9493	777.5	1.42692	1253
313.15 K, x2 = 0	843.5	1.48444	1248
313.15 K, x2 = 0.0494	839.4	1.48145	1243
313.15 K, x2 = 0.1056	834.5	1.47781	1238
313.15 K, x2 = 0.2078	825.8	1.47072	1228
313.15 K, x2 = 0.3149	816.5	1.46341	1218
313.15 K, x2 = 0.4156	807.5	1.45628	1209
313.15 K, x2 = 0.5115	799.2	1.44953	1202
313.15 K, x2 = 0.6083	790.9	1.44272	1195
313.15 K, x2 = 0.7079	782.5	1.43584	1189
313.15 K, x2 = 0.8167	773.7	1.42845	1184
313.15 K, x2 = 0.9109	766.2	1.42167	1182
313.15 K, x2 = 0.9601	762.5	1.41809	1181

CC1CCCCC1 [methylcyclohexane] + Cc1cc(C)cc(C)c1
x1 = 1
Settings	mass density, [1] [kg/m3]	refractive index, [2]	speed of sound, [1] [m/s]
298.15 K	765.1	1.42062	1215
313.15 K	751.9	1.41274	1150

Cc1cc(C)cc(C)c1 [1,3,5-trimethylbenzene] + C1CCCCC1
Settings	mass density, [1] [kg/m3]	refractive index, [2]	speed of sound, [1] [m/s]
298.15 K, x2 = 0	861.1	1.49693	1336
298.15 K, x2 = 0.0459	857.3	1.4939	1331
298.15 K, x2 = 0.0956	853.1	1.49061	1326
298.15 K, x2 = 0.193	844.8	1.48396	1315
298.15 K, x2 = 0.2937	835.9	1.47698	1304
298.15 K, x2 = 0.3878	827.5	1.46995	1294
298.15 K, x2 = 0.4953	817.9	1.46201	1283
298.15 K, x2 = 0.598	808.6	1.45441	1274
298.15 K, x2 = 0.6944	799.7	1.44675	1265
298.15 K, x2 = 0.796	790.3	1.43896	1258
298.15 K, x2 = 0.8942	781.5	1.43119	1252
298.15 K, x2 = 0.9515	776.9	1.42697	1250
313.15 K, x2 = 0	848.8	1.48923	1277
313.15 K, x2 = 0.0488	844.8	1.48628	1271
313.15 K, x2 = 0.102	840.2	1.48264	1265
313.15 K, x2 = 0.2008	831.7	1.47604	1253
313.15 K, x2 = 0.3053	822.6	1.4688	1241
313.15 K, x2 = 0.416	812.4	1.46071	1229
313.15 K, x2 = 0.5105	803.5	1.4534	1219
313.15 K, x2 = 0.6084	794.3	1.44576	1209
313.15 K, x2 = 0.7068	785.2	1.43825	1200
313.15 K, x2 = 0.8092	775.9	1.43012	1191
313.15 K, x2 = 0.911	766.9	1.4222	1185
313.15 K, x2 = 0.9612	762.7	1.41833	1183

— the NIST ThermoML archive (doi:10.1021/je901020a)
